Experimental data as given in US20230000894A1, “TREATING MITOCHONDRIAL DNA DEPLETION DISORDERS” (MITORAINBOW THERAPEUTICS, INC., priority 2019, published 2023).

Tests used:
[1] = Systemic exposure of dC and dT after oral dCMP+dTMP vs intravenous dC(P2)dT (Example 1); assay type: in vivo; conditions: for higher oral dose needed to deliver comparable plasma exposure of the corresponding nucleoside compared with intravenous dC(P2)dT / metabolism in vivo (detectability of administered labeled analyte in plasma): in vivo
Method: The systemic exposure of two mononucleotides (dCMP and dTMP) and their corresponding mononucleosides (dC and dT) following oral dosing of two mononucleotides (dCMP & dTMP) vs. intravenous dosing of a dinucleotide (dC(P2)dT) was determined. Test articles were prepared as follows:
Unlabeled test articles: dC=Deoxycytidine (nucleoside) dT=Deoxythymidine (nucleoside) dCMP=Deoxycytidine monophosphate (mononucleotide) dTMP=Deoxythymidine monophosphate (mononucleotide) dC(P2)dT or dT(P2)dC=Deoxycytidine-deoxythymidine diphosphate (dinucleotide) Labeled test articles: dC*=^15N3 labeled dC (labeled nucleoside) dT**=^13C10 and ^15N2 labeled dT (labeled nucleoside) The corresponding labeled nucleotides are dC*MP and dT**MP The corresponding labeled dinucleotide is dC*(P2)dT** or dT**(P2)dC*.
The nucleosides (dC and dT) and their corresponding monophosphate nucleotides (dCMP and dTMP) are naturally produced in the body. In order to differentiate naturally occurring vs exogenously administered dC/dT and dCMP/dTMP, a mixture of labeled dC*MP/dT**MP and unlabeled dCMP/dTMP was dosed via oral route, and a mixture of labeled dC*(P2)dT** and unlabeled dC(P2)dT via I.V. route. The labeled test articles served as tracers for the determination of systemic levels of exogenous dC/dT and dCMP/dTMP following dosing.
Plasma samples were then analyzed for the following analytes: dT**, dC*, dT**MP, dC*MP, and dC*(P2)dT**.
To correct for total TA (labeled+unlabeled) administered, the plasma levels of labeled analytes were multiplied by 10 and 5 for the P.O. and I.V. treatment groups, respectively. In addition, the total TA dose administered by P.O route was 1000 mg/kg (900 mg/kg unlabeled+100 mg/kg labeled) and 10 mg/kg (8 mg/kg unlabeled and 2 mg/kg labeled) for P.O. and I.V. treatment groups, respectively. To normalize by unit dose of TA administered the plasma levels of analytes were divided by 1000 and 10 for P.O. and I.V. treatment groups, respectively. The results of the label-corrected and dose-normalized levels of dT and dC for P.O. and I.V. routes of administration are shown in FIG. 2.
The differences in the AUC0-24h for I.V. vs. P.O. for both analytes are statistically different (p<0.01, t-test). The ratios of I.V./P.O. AUC(0-24h)'s are approximately 350 for dT and […].

[2] = Systemic exposure of dC and dT after a single I.V. vs one and two S.C. injections of dC(P2)dT (Example 2); assay type: in vivo; conditions: rats, 10 mg/kg total per dose (2 labeled + 8 unlabeled), initial 24 h post-dose
Method: The systemic exposure of dC and dT following a single I.V. injection of dC(P2)dT vs one and two subcutaneous (S.C.) injections of dC(P2)dT was compared, where the second S.C. injection is administered 24 h after the first.
Plasma levels of label-normalized dT and dC levels following a single I.V. and one and two S.C. administrations of labeled and unlabeled dC(P2)dT groups are shown in FIG. 4.

Molecule | higher oral dose needed to deliver comparable plasma exposure of the corresponding nucleoside compared with intravenous dC(P2)dT [1] | metabolism in vivo (detectability of administered labeled analyte in plasma) [1] | further results
Nc1ccn([C@H]2C[C@H](O)[C@@H](COP(=O)(O)O)O2)c(=O)n1 [dCMP, Deoxycytidine monophosphate] | approximately 110 fold | – | –
Nc1ccn([C@H]2C[C@H](O)[C@@H](COP(=O)(O)O)O2)c(=O)n1 [dC*MP] | – | rapid metabolism | –
Cc1cn([C@H]2C[C@H](O)[C@@H](COP(=O)(O)O)O2)c(=O)[nH]c1=O [dT**MP] | – | rapid metabolism | –
Deoxycytidine-deoxythymidine diphosphate [dC(P2)dT] | – | – | ratio of plasma AUC0-24h I.V. vs P.O. for dC ([1]; label-corrected, dose-normalized total dC in plasma, I.V. dC(P2)dT 10 mg/kg total vs P.O. dCMP+dTMP 1000 mg/kg total, p<0.01, t-test): ~110 fold; ratio of plasma AUC0-24h I.V. vs P.O. for dT ([1]; label-corrected, dose-normalized total dT in plasma, I.V. dC(P2)dT 10 mg/kg total vs P.O. dCMP+dTMP 1000 mg/kg total, p<0.01, t-test): approximately 350 fold; mean AUC0-24h of dT and dC in plasma, I.V. vs one and two S.C. administrations [2]: not statistically different
Cc1cn([C@H]2C[C@H](O)[C@@H](COP(=O)(O)O)O2)c(=O)[nH]c1=O [dTMP, Deoxythymidine monophosphate] | approximately 350 fold | – | –
